The text below walks through data of ChEMBL document CHEMBL4814073, “Ring-opening of five-membered heterocycles conjugated 4-isopropylresorcinol scaffold-based benzamides as HSP90 inhibitors suppressing tumor growth in vitro and in vivo” (Eur J Med Chem, 2021).

The term half-life denotes the time needed for the level to fall by half in the phase considered. For orientation: IC50 means the concentration at which inhibition is half-maximal. Higher therefore signals weaker potency in that assay. As usually defined, the AUC is concentration integrated over time.

The nature of data set [1]: Metabolic stability in Beagle dog hepatocytes assessed as half life by LC-MS/MS analysis. Type of data set: ADME, cell-based, Canis lupus familiaris, Hepatocyte.
Data set [2] concerns the target T1, Cytochrome P450 1A2 (Homo sapiens, UniProt P05177).
T1 sequence (P05177 whole entry): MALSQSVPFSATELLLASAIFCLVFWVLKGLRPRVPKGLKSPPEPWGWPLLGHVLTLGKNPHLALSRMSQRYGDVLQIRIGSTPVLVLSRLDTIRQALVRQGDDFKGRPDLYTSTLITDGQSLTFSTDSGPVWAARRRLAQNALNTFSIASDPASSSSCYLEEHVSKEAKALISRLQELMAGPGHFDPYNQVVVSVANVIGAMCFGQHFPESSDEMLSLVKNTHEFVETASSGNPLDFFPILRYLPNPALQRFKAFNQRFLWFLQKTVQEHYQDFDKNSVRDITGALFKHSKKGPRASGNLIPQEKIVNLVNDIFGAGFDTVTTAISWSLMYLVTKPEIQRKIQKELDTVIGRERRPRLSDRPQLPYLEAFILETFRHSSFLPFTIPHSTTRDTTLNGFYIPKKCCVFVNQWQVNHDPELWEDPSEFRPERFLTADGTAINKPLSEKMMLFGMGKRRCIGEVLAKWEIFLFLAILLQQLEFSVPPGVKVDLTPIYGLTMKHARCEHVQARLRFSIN
The data set is described as follows: Inhibition of CYP1A2 in human liver microsomes using phenacetin as substrate by LC-MS/MS analysis. Type of data set: ADME.

Data set [3] deals with A549. Kind of data set: Inhibition of MAPK signaling pathway in human A549 cells at 3 uM incubated for 24 hrs by immunoblot analysis. Format: cell-based. (In western blotting, separated proteins are transferred to a membrane and probed.)
The subject of data set [4] is NCI-H1975. Kind of data set: Antitumor activity against human NCI-H1975 cells xenografted in BALB/c mouse assessed as tumor growth inhibition at 50 mg/kg, po treated daily relative to control. As to conditions: read-out: TGI. (In general: Xenograft models place foreign cells or tissue in a host animal.)
The target in data set [5] is T2, Heat shock protein HSP90 (Homo sapiens, UniProt P07900+P08238). The data set is described as follows: Inhibition of HSP90 in human A549 cells assessed as downregulation of Src expression incubated for 24 hrs by immunoblot analysis. Type of data set: cell-based. As to conditions: dose microM <=3, time 24.0 hrs.
A short description of data set [6]: AUC (0 to infinity) in Sprague-Dawley rat at 2 mg/kg, iv measured after 1 hrs by LC-MS/MS analysis. Particulars: in vivo. More on the design: route intravenous, dose 2 mg/kg, time 1 hrs. Format: ADME, organism-based.
Data set [7] is described as follows: Hepatic clearance in CD1 mouse by LC-MS/MS analysis. Type of data set: ADME, tissue-based, Hepatocyte. Particulars: hepatocytes.
Data set [8] is described as follows: Apparent permeability across apical to basolateral in human Caco2 cells by LC-MS/MS analysis. Type of data set: ADME, cell-based. Particulars: Caco-2, read-out: permeability. (Passage across Caco-2 layers is used to estimate intestinal permeability.)
Data set [9] can be described thus: Metabolic stability in CD1 mouse hepatocytes assessed as half life by LC-MS/MS analysis. Format: ADME, cell-based, Hepatocyte.
The target of data set [10] is T2, Heat shock protein HSP90. The data set is described as follows: Inhibition of HSP90 in human A549 cells assessed as downregulation of FAK expression incubated for 24 hrs by immunoblot analysis. Format: cell-based. As to conditions: dose microM <=3, time 24.0 hrs.

Regarding `CCN(C(=O)c1cc(C(C)C)c(O)cc1O)c1cccnc1`, the half-life in [1] worked out at 39.2 min; in data set [9], 5.31 min. In data set [2], this compound yielded a half-maximal inhibitory concentration (IC50) above 50 µM. In addition, the inhibition result in data set [3], in data set [5] and in [10] was “Dose-Dependent Effect” in each case. The inhibition in vivo at 50 mg/kg in data set [4] came to 34.3%. Further, in data set [6], the AUC was 456 ng·h/mL. Besides, the CLhep predicted in [7] is 87.5 mL/min/kg. The Papp A→B in data set [8] was found to be 31.9 ×10⁻⁶ cm/s.
